# Laboratory results from patent US20180022780A1, “STABILIZATION ADRENOMEDULLIN DERIVATIVES AND USE THEREOF” (priority 2014, published 2018).
# Numbered stars: 1 amine (or outer) side, 2 acyl side, 3 side chain; on linkers, the order of the positions; unused ones are H or OH. Bridge positions count the residues as written; N and C are the ends. Square brackets hold non-standard residues; d marks the D form. Peptide text beside a SMILES is read from it. * marks the point of attachment. Abu(4-yl) = O=C([C@H](CC[*:3])N[*:1])[*:2]; Palmitoyl = CCCCCCCCCCCCCCCC(=O)*; Orn = NCCC[C@H](N)C(=O)O; Dap = NC[C@H](N)C(=O)O
# Molecular target: T1, CLR fused to EYFP and RAMP2 fused to ECFP (Homo sapiens, UniProt O60895+Q16602)
# T1 construct: EYFP; ECFP; expressed in transfected cells; host or cells: HEK-293 cells, transient co-transfection
# Assay: cAMP assay (CRE luciferase reporter, HEK-293 cells transiently co-transfected with CLR and RAMP2)
# Format: cell-based
# Conditions: Table 2, cAMP assay; HEK-293, CLR/RAMP2, CRE luciferase, 3 h stimulation, normalized to [G^14]ADM(14-52)
# Method: HEK-293 cells (human embryonic kidney cells) were cultured in Ham's F-12/DMEM (1/1; v/v) containing 15% FCS under humidified atmosphere at 37° C. and 5% CO2 in 75 cm^2 cell culture flasks.
# Cells were cultured in 75 cm^2 flasks to 70-80% confluency. 45 μl Metafectene® Pro was diluted in 900 μl Ham's F-12/DMEM (1/1; v/v) and incubated for 20 min at room temperature. 9000 ng plasmid containing DNA of CLR fused to EYFP and 3000 ng plasmid containing DNA of RAMP2 fused to ECFP were dissolved in 900 μl Ham's F-12/DMEM (1/1; v/v). The plasmid solution was mixed with the Metafectene® Pro solution and incubated for 25 min at room temperature. Medium was removed from the cells and replaced by 6 ml Ham's F-12/DMEM (1/1; v/v) containing 15% FCS. After addition of transfection solution the cells were incubated for 3 h under humidified atmosphere at 37° C. and 5% CO2.
# For the second transfection 45 μl Metafectene® Pro was diluted in 900 μl Ham's F-12/DMEM (1/1; v/v) and incubated for 20 min at room temperature. 12000 ng of pGL4.29[luc2P/CRE/Hygro] plasmid containing DNA for the luciferase reporter gene luc2P (with CRE promotor region) were dissolved in 900 μl Ham's F-12/DMEM (1/1; v/v). The plasmid solution was mixed with the Metafectene® Pro solution and incubated for 25 min at room temperature. Medium was removed from the cells and replaced by 6 ml Ham's F-12/DMEM (1/1; v/v) containing 15% FCS. After addition of transfection solution the cells were incubated under humidified atmosphere at 37° C. and 5% CO2 over night.
# For the coating of 96-well-plates 50 μl of a Poly-D-Lysine solution (1 ml stock solution of Poly-D-Lysin-hydrobromid/10 ml DPBS) were pipetted in each well and incubated for 40 min. After removal of the Poly-D-Lysine each well was washed with 50 μl DPBS. Transiently transfected cells were detached from the cell culture flask by removal of the medium, twofold washing with 5 m1 DPBS and resuspending in 13 ml Ham's F-12/DMEM (1/1; v/v) containing 15% FCS. 90000 to 120000 cells in 150 μl Ham's F-12/DMEM (1/1; v/v) containing 15% FCS were seeded per well and the plates were incubated under humidified atmosphere at 37° C. and 5% CO2 over night.
# For each ligand a serial dilution giving eight different concentrations was prepared using Ham's F-12/DMEM (1/1; v/v). Before stimulation the medium on the cells was replaced by 100 μl Ham's F-12/DMEM (1/1; v/v) and the plates were incubated for 1 h under humidified atmosphere at 37° C. and 5% CO2. For stimulation the medium was removed again and the cells were incubated for 3 h in 80 μl of ligand-solution under humidified atmosphere at 37° C. and 5% CO2. In addition 80 μl of a 5 μM forskolin solution (in Ham's F-12/DMEM (1/1; v/v)) was used as a positive control and 80 μl of Ham's F-12/DMEM (1/1; v/v) as a negative control. Each concentration and the controls were tested as triplicates.
# After 3 h of stimulation, the solutions were removed and the cells were washed with 50 μl of Ham's F-12/DMEM (1/1; v/v) per well. After 10 min incubation in 30 μl of Ham's F-12/DMEM (1/1; v/v) at room temperature, 30 μl of luciferase-solution (ONE-Glo™ Luciferase Assay System) was added and the luminescence was directly measured using an Infinite M200 (Tecan).
# Data analysis of the luminescence measurement was carried out with GraphPad Prism 5. Therefore the measured luminescence values of each plate were first corrected on the base of the respective average of forskolin stimulation. Afterwards they were normalized to [G^14]ADM(14-52) which was used as standard peptide in every assay. After correction and normalization data was analysed using non-linear regression giving dose-response curves for each tested ligand.
# T1 sequence (Q16602 23-461): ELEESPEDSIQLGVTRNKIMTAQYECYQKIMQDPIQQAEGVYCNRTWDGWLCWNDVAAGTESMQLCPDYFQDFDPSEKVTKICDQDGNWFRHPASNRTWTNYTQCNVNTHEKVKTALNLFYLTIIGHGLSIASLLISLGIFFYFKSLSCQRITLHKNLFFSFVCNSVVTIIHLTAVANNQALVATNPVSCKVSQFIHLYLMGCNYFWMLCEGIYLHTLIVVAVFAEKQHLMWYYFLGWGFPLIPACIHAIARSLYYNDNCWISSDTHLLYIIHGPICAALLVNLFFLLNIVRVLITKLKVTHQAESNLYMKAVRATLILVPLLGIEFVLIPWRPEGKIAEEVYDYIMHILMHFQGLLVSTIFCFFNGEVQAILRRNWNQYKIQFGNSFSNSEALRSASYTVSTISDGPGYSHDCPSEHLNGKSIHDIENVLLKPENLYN
# T1 sequence (O60895 43-175): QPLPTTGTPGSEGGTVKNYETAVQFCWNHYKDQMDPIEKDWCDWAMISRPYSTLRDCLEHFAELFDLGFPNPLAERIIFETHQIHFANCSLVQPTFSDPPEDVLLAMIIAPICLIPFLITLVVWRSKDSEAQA
row,EC50,SMILES
1,3.3 nM,"CC[C@H](C)[C@H](NC(=O)[C@H](CCC(N)=O)NC(=O)[C@H](Cc1c[nH]cn1)NC(=O)[C@H](C)NC(=O)[C@H](CC(C)C)NC(=O)[C@H](CCCCN)NC(=O)[C@H](CCC(N)=O)NC(=O)[C@@H](NC(=O)[C@@H](NC(=O)[C@@H]1CCSC[C@H](NC(=O)CNC(=O)CN)C(=O)N[C@@H](CCCNC(=N)N)C(=O)N[C@@H](Cc2ccccc2)C(=O)NCC(=O)N[C@@H]([C@@H](C)O)C(=O)N1)[C@@H](C)O)C(C)C)C(=O)N[C@@H](Cc1ccc(O)cc1)C(=O)N[C@@H](CCC(N)=O)C(=O)N[C@@H](Cc1ccccc1)C(=O)N[C@H](C(=O)N[C@@H](CC(=O)O)C(=O)N[C@@H](CCCCN)C(=O)N[C@@H](CC(=O)O)C(=O)N[C@@H](CCCCN)C(=O)N[C@@H](CC(=O)O)C(=O)N[C@@H](CC(N)=O)C(=O)N[C@H](C(=O)N[C@@H](C)C(=O)N1CCC[C@H]1C(=O)N[C@@H](CCCNC(=N)N)C(=O)N[C@@H](CO)C(=O)N[C@@H](CCCCN)C(=O)N[C@H](C(=O)N[C@@H](CO)C(=O)N1CCC[C@H]1C(=O)N[C@@H](CCC(N)=O)C(=O)NCC(=O)N[C@@H](Cc1ccc(O)cc1)C(N)=O)[C@@H](C)CC)C(C)C)[C@@H](C)O [Example 15, ((4S,7S,13S,16S,19R)-19-(2-(2-aminoacetamido)acetamido)-13-benzyl-16-(3-guanidinopropyl)-7-((R)-1-hydroxyethyl)-6,9,12,15,18-pentaoxo-1-thia-5,8,11,14,17-pentaazacycloicosane-4-carbonyl)-L-threonyl-ADM(22-52)] (H-GGCRFGT[Abu(4-yl)]TVQKLAHQIYQFTDKDKDNVAPRSKISPQGY-NH2; thioether 3-8)"
2,6.8 nM,"CC[C@H](C)[C@H](NC(=O)[C@H](CCC(N)=O)NC(=O)[C@H](Cc1c[nH]cn1)NC(=O)[C@H](C)NC(=O)[C@H](CC(C)C)NC(=O)[C@H](CCCCN)NC(=O)[C@H](CCC(N)=O)NC(=O)[C@@H](NC(=O)[C@@H](NC(=O)[C@@H]1CSCC[C@H](NC(=O)CNC(=O)CN)C(=O)N[C@@H](CCCNC(=N)N)C(=O)N[C@@H](Cc2ccccc2)C(=O)NCC(=O)N[C@@H]([C@@H](C)O)C(=O)N1)[C@@H](C)O)C(C)C)C(=O)N[C@@H](Cc1ccc(O)cc1)C(=O)N[C@@H](CCC(N)=O)C(=O)N[C@@H](Cc1ccccc1)C(=O)N[C@H](C(=O)N[C@@H](CC(=O)O)C(=O)N[C@@H](CCCCN)C(=O)N[C@@H](CC(=O)O)C(=O)N[C@@H](CCCCN)C(=O)N[C@@H](CC(=O)O)C(=O)N[C@@H](CC(N)=O)C(=O)N[C@H](C(=O)N[C@@H](C)C(=O)N1CCC[C@H]1C(=O)N[C@@H](CCCNC(=N)N)C(=O)N[C@@H](CO)C(=O)N[C@@H](CCCCN)C(=O)N[C@H](C(=O)N[C@@H](CO)C(=O)N1CCC[C@H]1C(=O)N[C@@H](CCC(N)=O)C(=O)NCC(=O)N[C@@H](Cc1ccc(O)cc1)C(N)=O)[C@@H](C)CC)C(C)C)[C@@H](C)O [Example 16, ((3R,6S,12S,15S,18S)-18-(2-(2-aminoacetamido)acetamido)-12-benzyl-15-(3-guanidinopropyl)-6-((R)-1-hydroxyethyl)-5,8,11,14,17-pentaoxo-1-thia-4,7,10,13,16-pentaazacycloicosane-3-carbonyl)-L-threonyl-ADM(22-52)] (H-GG[Abu(4-yl)]RFGTCTVQKLAHQIYQFTDKDKDNVAPRSKISPQGY-NH2; thioether 3-8)"
3,2 nM,"CCCCCCCCCCCCCCCC(=O)NCCCC[C@H](N)C(=O)NCC(=O)N[C@H]1CNC(=O)CC[C@@H](C(=O)N[C@H](C(=O)N[C@H](C(=O)N[C@@H](CCC(N)=O)C(=O)N[C@@H](CCCCN)C(=O)N[C@@H](CC(C)C)C(=O)N[C@@H](C)C(=O)N[C@@H](Cc2c[nH]cn2)C(=O)N[C@@H](CCC(N)=O)C(=O)N[C@H](C(=O)N[C@@H](Cc2ccc(O)cc2)C(=O)N[C@@H](CCC(N)=O)C(=O)N[C@@H](Cc2ccccc2)C(=O)N[C@H](C(=O)N[C@@H](CC(=O)O)C(=O)N[C@@H](CCCCN)C(=O)N[C@@H](CC(=O)O)C(=O)N[C@@H](CCCCN)C(=O)N[C@@H](CC(=O)O)C(=O)N[C@@H](CC(N)=O)C(=O)N[C@H](C(=O)N[C@@H](C)C(=O)N2CCC[C@H]2C(=O)N[C@@H](CCCNC(=N)N)C(=O)N[C@@H](CO)C(=O)N[C@@H](CCCCN)C(=O)N[C@H](C(=O)N[C@@H](CO)C(=O)N2CCC[C@H]2C(=O)N[C@@H](CCC(N)=O)C(=O)NCC(=O)N[C@@H](Cc2ccc(O)cc2)C(N)=O)[C@@H](C)CC)C(C)C)[C@@H](C)O)[C@@H](C)CC)C(C)C)[C@@H](C)O)NC(=O)[C@H]([C@@H](C)O)NC(=O)CNC(=O)[C@H](Cc2ccccc2)NC(=O)[C@H](CCCNC(=N)N)NC1=O [Example 18, ((3S,9S,12S,15S,21S)-15-(2-((S)-2-amino-6-palmitamidohexanamido)acetamido)-9-benzyl-12-(3-guanidinopropyl)-3-((R)-1-hydroxyethyl)-2,5,8,11,14,18-hexaoxo-1,4,7,10,13,17-hexaazacyclohenicosane-21-carbonyl)-L-threonyl-ADM(22-52)] (H-K(Palmitoyl)G[Dap]RFGTETVQKLAHQIYQFTDKDKDNVAPRSKISPQGY-NH2; lactam 3-8)"
4,9.1 nM,"CC[C@H](C)[C@H](NC(=O)[C@H](CCC(N)=O)NC(=O)[C@H](Cc1c[nH]cn1)NC(=O)[C@H](C)NC(=O)[C@H](CC(C)C)NC(=O)[C@H](CCCCN)NC(=O)[C@H](CCC(N)=O)NC(=O)[C@@H](NC(=O)[C@@H](NC(=O)[C@@H]1CCC(=O)NCCC[C@H](NC(=O)CNC(=O)CN)C(=O)N[C@@H](CCCNC(=N)N)C(=O)N[C@@H](Cc2ccccc2)C(=O)NCC(=O)N[C@@H]([C@@H](C)O)C(=O)N1)[C@@H](C)O)C(C)C)C(=O)N[C@@H](Cc1ccc(O)cc1)C(=O)N[C@@H](CCC(N)=O)C(=O)N[C@@H](Cc1ccccc1)C(=O)N[C@H](C(=O)N[C@@H](CC(=O)O)C(=O)N[C@@H](CCCCN)C(=O)N[C@@H](CC(=O)O)C(=O)N[C@@H](CCCCN)C(=O)N[C@@H](CC(=O)O)C(=O)N[C@@H](CC(N)=O)C(=O)N[C@H](C(=O)N[C@@H](C)C(=O)N1CCC[C@H]1C(=O)N[C@@H](CCCNC(=N)N)C(=O)N[C@@H](CO)C(=O)N[C@@H](CCCCN)C(=O)N[C@H](C(=O)N[C@@H](CO)C(=O)N1CCC[C@H]1C(=O)N[C@@H](CCC(N)=O)C(=O)NCC(=O)N[C@@H](Cc1ccc(O)cc1)C(N)=O)[C@@H](C)CC)C(C)C)[C@@H](C)O [Example 20, ((2S,5S,11S,14S,22S)-22-(2-(2-aminoacetamido)acetamido)-5-benzyl-2-(3-guanidinopropyl)-11-((R)-1-hydroxyethyl)-3,6,9,12,17,23-hexaoxo-1,4,7,10,13,18-hexaazacyclotricosane-14-carbonyl)-L-threonyl-ADM(22-52)] (H-GG[Orn]RFGTETVQKLAHQIYQFTDKDKDNVAPRSKISPQGY-NH2; lactam 3-8)"
